Experimental data published in US12187742B2 (XRAD Therapeutics, Inc., priority 2018, dated 2025).
Counter-ions that a name gives are not always drawn.

Assays:
ATM = ATM (Homo sapiens (Human), UniProt Q13315); assay: ATM in Cell Western Assay (pKAP1 in etoposide-treated MCF-7 cells); assay type: cell-based
How it was run: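 Cells received compounds in a 10-dose, 3-fold series from a 1 μM final top concentration, then 100 μM etoposide, for 1 hr at 37° C. They were then fixed with paraformaldehyde and permeabilized with 0.1% Triton X-100. After immunostaining, plates were scanned on an infrared imager.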

DNA-PK = DNA-PK (Homo sapiens (Human), UniProt P78527); assay: DNA-PK Enzyme-Linked Immunosorbent Assay (phosphorylation of GST-p53 (1-101) peptide); assay type: biochemical; conditions: ELISA
How it was run: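 ELISA with plate-bound GST-p53 (1-101) phosphorylated by DNA-PK (0.1 μg/mL final) with 20 μM ATP for 1 h at 25 °C. Compounds tested over 10 3-fold doses from 100 nM top final. Phospho-p53 Ser15 detected by antibody, HRP and TMB, absorbance at 450 nm.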

[1] = MCF-7 cells, etoposide 100 μM, 1 hr, pKAP1 readout
[2] = pKAP1 in etoposide-treated MCF-7 cells

ATM, sequence (Q13315 whole entry): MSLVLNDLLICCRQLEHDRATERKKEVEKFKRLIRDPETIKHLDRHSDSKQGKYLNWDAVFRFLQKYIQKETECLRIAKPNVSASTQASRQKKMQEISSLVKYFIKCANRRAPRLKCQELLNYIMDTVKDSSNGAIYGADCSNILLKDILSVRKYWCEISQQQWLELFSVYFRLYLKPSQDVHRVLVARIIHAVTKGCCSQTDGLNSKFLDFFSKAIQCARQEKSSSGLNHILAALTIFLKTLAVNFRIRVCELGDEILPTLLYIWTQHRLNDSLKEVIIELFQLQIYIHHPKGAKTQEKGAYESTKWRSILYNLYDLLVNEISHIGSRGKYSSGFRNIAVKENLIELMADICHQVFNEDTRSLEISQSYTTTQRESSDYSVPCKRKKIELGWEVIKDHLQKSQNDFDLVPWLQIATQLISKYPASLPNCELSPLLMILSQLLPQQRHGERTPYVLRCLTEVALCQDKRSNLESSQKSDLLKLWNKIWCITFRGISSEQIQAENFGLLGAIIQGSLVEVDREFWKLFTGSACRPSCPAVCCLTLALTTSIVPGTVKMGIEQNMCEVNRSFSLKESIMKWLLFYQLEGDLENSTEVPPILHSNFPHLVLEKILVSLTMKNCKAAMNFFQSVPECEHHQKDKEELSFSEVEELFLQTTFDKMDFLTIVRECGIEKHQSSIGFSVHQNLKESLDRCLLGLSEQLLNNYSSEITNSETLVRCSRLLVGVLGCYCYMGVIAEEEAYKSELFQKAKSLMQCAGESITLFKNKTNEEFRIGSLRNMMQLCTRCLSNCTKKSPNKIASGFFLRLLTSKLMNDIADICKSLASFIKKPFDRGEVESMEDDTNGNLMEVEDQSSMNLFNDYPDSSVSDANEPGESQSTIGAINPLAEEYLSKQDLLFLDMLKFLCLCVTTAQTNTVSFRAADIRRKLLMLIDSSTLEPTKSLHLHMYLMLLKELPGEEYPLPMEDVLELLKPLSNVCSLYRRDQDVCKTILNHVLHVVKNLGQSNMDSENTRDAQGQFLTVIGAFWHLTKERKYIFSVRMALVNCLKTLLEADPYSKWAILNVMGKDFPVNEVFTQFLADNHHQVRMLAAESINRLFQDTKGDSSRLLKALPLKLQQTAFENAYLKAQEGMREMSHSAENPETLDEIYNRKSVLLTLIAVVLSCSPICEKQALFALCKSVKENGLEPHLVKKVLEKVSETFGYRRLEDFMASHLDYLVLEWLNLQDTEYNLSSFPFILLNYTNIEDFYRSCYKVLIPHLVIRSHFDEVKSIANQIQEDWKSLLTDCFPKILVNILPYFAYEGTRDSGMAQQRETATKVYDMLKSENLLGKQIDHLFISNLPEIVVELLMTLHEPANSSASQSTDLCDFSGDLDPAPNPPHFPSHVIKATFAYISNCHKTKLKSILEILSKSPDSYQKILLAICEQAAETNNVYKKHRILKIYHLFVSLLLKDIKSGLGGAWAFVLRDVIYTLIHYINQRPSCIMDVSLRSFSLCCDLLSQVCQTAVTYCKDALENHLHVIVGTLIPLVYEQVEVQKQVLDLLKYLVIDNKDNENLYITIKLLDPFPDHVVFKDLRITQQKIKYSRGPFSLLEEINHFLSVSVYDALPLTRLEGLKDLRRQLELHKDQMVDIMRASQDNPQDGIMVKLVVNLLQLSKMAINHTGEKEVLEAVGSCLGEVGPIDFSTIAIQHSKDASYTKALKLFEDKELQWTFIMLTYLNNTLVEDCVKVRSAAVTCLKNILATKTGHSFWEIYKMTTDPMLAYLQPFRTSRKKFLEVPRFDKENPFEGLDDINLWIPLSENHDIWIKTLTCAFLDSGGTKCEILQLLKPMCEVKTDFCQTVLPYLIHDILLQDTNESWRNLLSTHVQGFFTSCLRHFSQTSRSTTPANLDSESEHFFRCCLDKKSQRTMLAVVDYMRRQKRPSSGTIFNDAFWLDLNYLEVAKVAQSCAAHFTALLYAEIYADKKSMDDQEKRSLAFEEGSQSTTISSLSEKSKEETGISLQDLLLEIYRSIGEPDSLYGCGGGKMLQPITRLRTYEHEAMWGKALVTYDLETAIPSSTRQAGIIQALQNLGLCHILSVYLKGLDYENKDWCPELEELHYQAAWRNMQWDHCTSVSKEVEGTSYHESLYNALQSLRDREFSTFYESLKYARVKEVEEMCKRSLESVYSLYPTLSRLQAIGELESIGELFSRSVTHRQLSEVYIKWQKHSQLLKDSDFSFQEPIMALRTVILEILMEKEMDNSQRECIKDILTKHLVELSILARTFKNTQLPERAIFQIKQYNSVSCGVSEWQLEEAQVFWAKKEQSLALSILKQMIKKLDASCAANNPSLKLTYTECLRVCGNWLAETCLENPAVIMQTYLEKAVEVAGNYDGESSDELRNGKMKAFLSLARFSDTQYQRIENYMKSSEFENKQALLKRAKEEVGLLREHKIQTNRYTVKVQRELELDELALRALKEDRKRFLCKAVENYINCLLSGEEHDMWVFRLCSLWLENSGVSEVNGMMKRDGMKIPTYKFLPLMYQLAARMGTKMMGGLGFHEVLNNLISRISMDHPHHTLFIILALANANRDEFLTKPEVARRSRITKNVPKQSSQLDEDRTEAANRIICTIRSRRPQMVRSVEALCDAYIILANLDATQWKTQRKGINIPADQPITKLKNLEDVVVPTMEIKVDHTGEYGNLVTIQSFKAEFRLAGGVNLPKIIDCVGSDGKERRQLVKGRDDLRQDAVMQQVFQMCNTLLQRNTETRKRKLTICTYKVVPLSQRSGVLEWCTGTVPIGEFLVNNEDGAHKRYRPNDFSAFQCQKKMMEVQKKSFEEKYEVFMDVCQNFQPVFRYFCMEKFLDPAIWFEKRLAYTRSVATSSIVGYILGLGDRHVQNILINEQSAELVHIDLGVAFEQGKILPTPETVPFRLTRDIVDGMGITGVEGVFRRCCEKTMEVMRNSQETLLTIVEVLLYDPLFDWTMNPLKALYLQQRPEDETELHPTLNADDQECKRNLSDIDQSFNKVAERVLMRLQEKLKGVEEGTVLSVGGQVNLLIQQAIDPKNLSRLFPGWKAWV

| SMILES | IC50 (ATM; [1]) [nM] | IC50 (DNA-PK; ATP 20 μM) [nM] | IC50 (ATM; [2]) [nM] | IC50 (DNA-PK; 20 μM ATP) [nM] |
| --- | --- | --- | --- | --- |
| CN1CCN(c2ncc(-c3cc4c5c(cnc4cc3F)N(C)C(=O)C53CC3)cc2NS(=O)(=O)c2ccccc2)CC1 [Example 117, N-(5-(7′-Fluoro-3′-methyl-2′-oxo-2′,3′-dihydrospiro [cyclopropane-1,1′-pyrrolo[2,3-c]quinolin]-8′-yl)-2-(4-methylpiperazin-l-yl)Pyridin-3-yl)benzenesulfonamide hydrochloride] | 1 to 100 | 1 to 100 |  |  |
| CC(C)NCCOc1ncc(-c2ccc3ncc4c(c3c2)C2(CCC2)C(=O)N4C)cc1NS(C)(=O)=O [Example 281, N-(2-(2-(Isopropylamino)ethoxy)-5-(3′-methyl-2′-oxo-2′,3′-dihydrospiro [cyclobutane-1,1′-pyrrolo[2,3-c]quinolin]-8′-yl)pyridin-3-yl)methanesulfonamide] | 1 to 100 | 0.5 to 1 |  |  |
| CN1C(=O)C2(CCC2)c2c1cnc1ccc(-c3cnc(OCCCN4CCOCC4)c(NS(=O)(=O)C4CC4)c3)cc21 [Example 306, N-(5-(3′-Methyl-2′-oxo-2′,3′-dihydrospiro[cyclobutane-1,1′-pyrrolo[2,3-c]quinolin]-8′-yl)-2-(3-morpholinopropoxy)pyridin-3-yl)cyclopropanesulfonamide] | 1 to 100 | 1 to 100 |  |  |
| CNCCOc1ncc(-c2ccc3ncc4c(c3c2)C2(CCC2)C(=O)N4C)cc1NS(=O)(=O)c1ccccc1 [Example 250, N-(5-(3′-Methyl-2′-oxo-2′,3′-dihydrospiro[cyclobutane-1,1′-pyrrolo[2,3-c]quinolin]-8′-yl)-2-(2-(methylamino)ethoxy)pyridin-3-yl) benzenesulfonamide] | 1 to 100 | < 0.5 |  |  |
| CC(C)NCCOc1ncc(-c2cc3c4c(cnc3cc2F)N(C)C(=O)C42CCC2)cc1NS(=O)(=O)CCN(C)C [Example 375, 2-(Dimethylamino)-N-(5-(7′-fluoro-3′-methyl-2′-oxo-2′,3′-dihydrospiro[cyclobutane-1,1′-pyrrolo[2,3-c]quinolin]-8′-yl)-2-(2-(isopropylamino)ethoxy)pyridin-3-yl)ethane-1-sulfonamide hydrochloride] |  |  | 1 to 100 | 1 to 100 |
| Cc1cc(-c2ccc3ncc4c(c3c2)C2(CC2)C(=O)N4C)cnc1OCCCN(C)C [Example 57, 8′-(6-(3-(Dimethylamino)propoxy)-5-methylpyridin-3-yl)-3′-methylspiro[cyclopropane-1,1′-pyrrolo[2,3-c]quinolin]-2′(3′-H)-one] | 1 to 100 | 1 to 100 |  |  |
| CN1C(=O)C2(CCC2)c2c1cnc1ccc(-c3cnc(N4CCC(N5CCCCC5)CC4)c(NS(C)(=O)=O)c3)cc21 [Example 228, N-(2-([1,4′-Bipiperidin]-1′-yl)-5-(3′-methyl-2′-oxo-2′,3′-dihydrospiro[cyclobutane-1,1′-pyrrolo[2,3-c]quinolin]-8′-yl)pyridin-3-yl)methanesulfonamide] | 0.5 to 1 | < 0.5 |  |  |
| COC[C@H]1C[C@]2(C1)C(=O)N(C)c1cnc3cc(F)c(-c4cnc(OCCNC(C)C)c(NS(C)(=O)=O)c4)cc3c12 [Example 404, cis-N-(5-(7′-Fluoro-3-(methoxymethyl)-3′-methyl-2′-oxo-2′,3′-dihydrospiro[cyclobutane-1,1′-pyrrolo[2,3-c]quinolin]-8′-yl)-2-(2-(isopropylamino)ethoxy)pyridin-3-yl)methanesulfonamide] |  |  | 1 to 100 | 0.5 to 1 |
| CN1CC2CN(c3ncc(-c4ccc5ncc6c(c5c4)C4(CCC4)C(=O)N6C)cc3NS(C)(=O)=O)CC2C1 (stereo not shown) [Example 350, N-(5-(3′-Methyl-2′-oxo-2′,3′-dihydrospiro[cyclobutane-1,1′-pyrrolo[2,3-c]quinolin]-8′-yl)-2-(5-methylhexahydropyrrolo[3,4-c]pyrrol-2(1H)-yl)pyridin-3-yl)methanesulfonamide formate] |  |  | 1 to 100 | 1 to 100 |
| CN(C)CCCOc1ncc(-c2ccc3ncc4c(c3c2)C2(CCC2)C(=O)N4C)cc1NS(=O)(=O)N1CCC1 [Example 164, N-(2-(3-(Dimethylamino)propoxy)-5-(3′-methyl-2′-oxo-2′,3′-dihydrospiro[cyclobutane-1,1′-pyrrolo[2,3-c]quinolin]-8′-yl)pyridin-3-yl)azetidine-1-sulfonamide] | 1 to 100 | < 0.5 |  |  |
| CN1C(=O)C2(CC2)c2c1cnc1ccc(-c3cnc(OCCCN4CCCCC4)c(NS(=O)(=O)c4ccccc4)c3)cc21 [Example 67, N-(5-(3′-Methyl-2′-oxo-2′,3′-dihydrospiro[cyclopropane-1,1′-pyrrolo[2,3-c]quinolin]-8′-yl)-2-(3-(piperidin-1-yl)propoxy)pyridin-3-yl)benzenesulfonamide] | 0.5 to 1 | < 0.5 |  |  |
| CO[C@H]1C[C@]2(C1)C(=O)N(C)c1cnc3cc(F)c(-c4cnc(OCCNC(C)C)c(NS(=O)(=O)C5CC5)c4)cc3c12 [Example 387, cis-N-(5-(7′-Fluoro-3-methoxy-3′-methyl-2′-oxo-2′,3′-dihydrospiro[cyclobutane-1,1′-pyrrolo[2,3-c]quinolin]-8′-yl)-2-(2-(isopropylamino)ethoxy)pyridin-3-yl)cyclopropanesulfonamid] |  |  | 1 to 100 | 1 to 100 |
| CN1CCN(S(=O)(=O)Nc2cc(-c3ccc4ncc5c(c4c3)C3(CCC3)C(=O)N5C)cnc2OCCCN2CCCCC2)CC1 [Example 200] | 0.5 to 1 | < 0.5 |  |  |
| CCS(=O)(=O)Nc1cc(-c2cc3c4c(cnc3cc2F)N(C)C(=O)C42CCC2)cnc1N1CC(N(C)C)C1 [Example 343, N-(2-(3-(Dimethylamino)azetidin-1-yl)-5-(7′-fluoro-3′-methyl-2′-oxo-2′,3′-dihydrospiro[cyclobutane-1,1′-pyrrolo[2,3-c]quinolin]-8′-yl)pyridin-3-yl)ethanesulfonamide formate] |  |  | 1 to 100 | 1 to 100 |
| CN(C)CCCOc1ncc(-c2ccc3ncc4c(c3c2)C2(CC2)C(=O)N4C)cc1NS(=O)(=O)c1ccccc1F [Example 107, N-(2-(3-(Dimethylamino)propoxy)-5-(3′-methyl-2′-oxo-2′,3′-dihydrospiro[cyclopropane-1,1′-pyrrolo[2,3-c]quinolin]-8′-yl)pyridin-3-yl)-2-fluorobenzenesulfonamide] | 0.5 to 1 | < 0.5 |  |  |
| CN(C)CCCOc1ncc(-c2ccc3ncc4c(c3c2)C2(COC2)C(=O)N4C)cc1NS(=O)(=O)c1ccccc1 [Example 32, N-(2-(3-(Dimethylamino)propoxy)-5-(3′-methyl-2′-oxo-2′,3′-dihydrospiro[oxetane-3,1′-pyrrolo[2,3-c]quinolin]-8′-yl)pyridin-3-yl)benzenesulfonamide] | 1 to 100 | 1 to 100 |  |  |
| CC(C)NCCOc1ncc(-c2cc3c(cc2F)ncc2c3[C@]3(C[C@@H](c4ccc(Cl)cc4)C3)C(=O)N2C)cc1NS(C)(=O)=O [Example 417, trans-N-(5-(3-(4-Chlorophenyl)-7′ fluoro-3′-methyl-2′-oxo-2′,3′-dihydrospiro[cyclobutane-1,1′-pyrrolo[2,3-c]quinolin]-8′-yl)-2-(2-(isopropylamino)ethoxy)pyridin-3-yl)methanesulfonamide] |  |  | > 100 | 1 to 100 |
| CN(C)CCCOc1ncc(-c2ccc3c(c2)c2c(c[n+]3[O-])N(C)C(=O)C23CC3)cc1NS(=O)(=O)c1ccccc1 [Example 123, 8′-(6-(3-(Dimethylamino)propoxy)-5-(phenylsulfonamido)pyridin-3-yl)-3′-methyl-2′-oxo-2′,3′-dihydrospiro[cyclopropane-1,1′-pyrrolo[2,3-c]quinoline]5′-oxide] | 1 to 100 | 1 to 100 |  |  |
| CN1C(=O)C2(CCC2)c2c1cnc1ccc(-c3cnc(OCCCN4CCCCC4)c(NS(=O)(=O)c4cccnc4)c3)cc21 [Example 252, N-(5-(3′-Methyl-2′-oxo-2′,3′-dihydrospiro [cyclobutane-1,1′-pyrrolo [2,3-c]quinolin]-8′-yl)-2-(3-(piperidin-1-yl)propoxy)pyridin-3-yl)pyridine-3-sulfonamide] | 1 to 100 | 1 to 100 |  |  |
| CN(C)CCCOc1ncc(-c2ccc3ncc4c(c3c2)C2(CCC2)C(=O)N4C)cc1NS(=O)(=O)c1ccccc1F [Example 168, N-(2-(3-(Dimethylamino)propoxy)-5-(3′-methyl-2′-oxo-2′,3′-dihydrospiro[cyclobutane-1,1′-pyrrolo[2,3-c]quinolin]-8′-yl)pyridin-3-yl)-2-fluorobenzenesulfonamide hydrochloride] | 0.5 to 1 | < 0.5 |  |  |
| CN(C)CCCOc1ncc(-c2ccc3ncc4c(c3c2)C2(CC2)C(=O)N4C)cc1NS(=O)(=O)c1ccc(OC(F)(F)F)cc1 [Example 121, N-(2-(3-(Dimethylamino)propoxy)-5-(3′-methyl-2′-oxo-2′,3′-dihydrospiro[cyclopropane-1,1′-pyrrolo[2,3-c]quinolin]-8′-yl)pyridin-3-yl)-4-(trifluoromethoxy)benzenesulfonamide] | 1 to 100 | < 0.5 |  |  |
| CC1CCN(S(=O)(=O)Nc2cc(-c3ccc4ncc5c(c4c3)C3(CCC3)C(=O)N5C)cnc2OCCCN(C)C)CC1 [Example 165, N-(2-(3-(Dimethylamino)propoxy)-5-(3′-methyl-2′-oxo-2′,3′-dihydrospiro[cyclobutane-1,1′-pyrrolo[2,3-c]quinolin]-8′-yl)pyridin-3-yl)-4-methylpiperidine-1-sulfonamide] | 1 to 100 | 1 to 100 |  |  |
| CNC1CN(c2ncc(-c3ccc4ncc5c(c4c3)C3(CCC3)C(=O)N5C)cc2NS(C)(=O)=O)C1 [Example 329, N-(5-(3′-Methyl-2′-oxo-2′,3′-dihydrospiro[cyclobutane-1,1′-pyrrolo[2,3-c]quinolin]-8′-yl)-2-(3-(methylamino)azetidin-1-yl)pyridin-3-yl) methanesulfonamide formate] | 1 to 100 | < 0.5 |  |  |
